US9944635B2, “Deuterated pyrazino[2,1-a]isoquinoline compounds and methods of treatment using the same” (Concert Pharmaceuticals, Inc., priority 2011, dated 2018)
Read-outs that look alike come from different tables or passages of the source.

Experiments:
[1] = Metabolic stability in human liver microsomes (in vitro half-life); type: in vitro ADME
Procedure: Human liver microsomes (20 mg/mL) are obtained from Xenotech, LLC (Lenexa, Kans.). β-nicotinamide adenine dinucleotide phosphate, reduced form (NADPH), magnesium chloride (MgCl2), and dimethyl sulfoxide (DMSO) are purchased from Sigma-Aldrich. 7.5 mM stock solutions of test compounds were prepared in DMSO. The 7.5 mM stock solutions were diluted to 50 μM in acetonitrile (ACN). The 20 mg/mL human liver microsomes were diluted to 0.625 mg/mL in 0.1 M potassium phosphate buffer, pH 7.4, containing 3 mM MgCl2. The diluted microsomes were added to wells of a 96-well deep-well polypropylene plate in triplicate. A 10 μL aliquot of the 50 μM test compound was added to the microsomes and the mixture was pre-warmed for 10 minutes. Reactions were initiated by addition of pre-warmed NADPH solution. The final reaction volume was 0.5 mL and contained 0.5 mg/mL human liver microsomes, 1.0 μM test compound, and 2 mM NADPH in 0.1 M potassium phosphate buffer, pH 7.4, and 3 mM MgCl2. The reaction mixtures were incubated at 37° C., and 50 μL aliquots were removed at 0, 5, 10, 20, and 30 minutes and added to shallow-well 96-well plates which contained 50 μL of ice-cold ACN with internal standard to stop the reactions. The plates were stored at 4° C. for 20 minutes after which 100 μL of water was added to the wells of the plate before centrifugation to pellet precipitated proteins. Supernatants were transferred to another 96-well plate and analyzed for amounts of parent remaining by LC-MS/MS using an Applied Bio-systems API 4000 mass spectrometer. […] Testing was done in triplicate.

schistosoma = conditions: enantiomer comparison, Meyer et al. 2009; cited from earlier work
[2] = FDA label for BILTRICIDE; cited from earlier work
[3] = pH 7.4, Table 3, 0.5 mg/mL HLM, 1.0 μM test compound, 2 mM NADPH, 37° C., read-out: Half-life (t½) Run No. 9
[4] = pH 7.4, Table 3, 0.5 mg/mL HLM, 1.0 μM test compound, 2 mM NADPH, 37° C., read-out: Half-life (t½) Run No. 10
[5] = pH 7.4, Table 3, 0.5 mg/mL HLM, 1.0 μM test compound, 2 mM NADPH, 37° C., read-out: Half-life (t½) Run No. 11
[6] = pH 7.4, Table 3, 0.5 mg/mL HLM, 1.0 μM test compound, 2 mM NADPH, 37° C., read-out: Half-life (t½) Run No. 12
[7] = pH 7.4, Table 3, average of runs 9-12, read-out: Half-life (t½) AVE ± SD
[8] = pH 7.4, Table 1, 0.5 mg/mL HLM, 1.0 μM test compound, 2 mM NADPH, 37° C., read-out: t1/2 Run No. 1
[9] = pH 7.4, Table 1, 0.5 mg/mL HLM, 1.0 μM test compound, 2 mM NADPH, 37° C., read-out: t1/2 Run No. 2
[10] = pH 7.4, Table 1, 0.5 mg/mL HLM, 1.0 μM test compound, 2 mM NADPH, 37° C., read-out: t1/2 Run No. 3
[11] = pH 7.4, Table 1, 0.5 mg/mL HLM, 1.0 μM test compound, 2 mM NADPH, 37° C., read-out: t1/2 Run No. 4
[12] = pH 7.4, Table 1, average of runs 1-4, read-out: t1/2 AVE ± SD
[13] = pH 7.4, Table 2, 0.5 mg/mL HLM, 1.0 μM test compound, 2 mM NADPH, 37° C., read-out: t1/2 Run No. 5
[14] = pH 7.4, Table 2, 0.5 mg/mL HLM, 1.0 μM test compound, 2 mM NADPH, 37° C., read-out: t1/2 Run No. 6
[15] = pH 7.4, Table 2, 0.5 mg/mL HLM, 1.0 μM test compound, 2 mM NADPH, 37° C., read-out: t1/2 Run No. 8
[16] = pH 7.4, Table 2, average of runs 5-8, read-out: t1/2 AVE ± SD
[17] = pH 7.4, Table 2, 0.5 mg/mL HLM, 1.0 μM test compound, 2 mM NADPH, 37° C., read-out: t1/2 Run No. 7

SMILES	half-life at 1 μM [1, 3] [min]	half-life at 1 μM [1, 4] [min]	half-life at 1 μM [1, 5] [min]	half-life at 1 μM [1, 6] [min]	half-life at 1 μM [1, 7] [min]	half-life at 1 μM [1, 11] [min]	half-life at 1 μM [1, 12] [min]	half-life at 1 μM [1, 13] [min]	half-life at 1 μM [1, 14] [min]	half-life at 1 μM [1, 15] [min]	half-life at 1 μM [1, 16] [min]	half-life at 1 μM [1, 17] [min]	also measured
[2H]C1([2H])CCC(C(=O)N2CC(=O)N3CCc4ccccc4[C@@H]3C2)CC1 [101(a), (R)-2-(4,4-d2-Cyclohexanecarbonyl)-2,3,6,7-tetrahydro-1H-pyrazino[2,1-a]isoquinolin-4(11bH)-one]	48.9	46.7	56.3	45.8	49.4 ± 4.8								
[2H]C1([2H])CC(C(=O)N2CC(=O)N3CCc4ccccc4[C@@H]3C2)CC([2H])([2H])C1([2H])[2H] [109(a), (R)-2-(3,3,4,4,5,5-d6-Cyclohexanecarbonyl)-2,3,6,7-tetrahydro-1H-pyrazino[2,1-a]isoquinolin-4(11bH)-one]	39.5	38.7	43.2	55.4	44.2 ± 7.7								
O=C(C1CCCCC1)N1CC(=O)N2CCc3ccccc3[C@@H]2C1 [(R) Praziquantel]													schistosomicidal activity (schistosoma): has schistosomicidal activity
[2H]C1([2H])CCC(C(=O)N2CC(=O)N3CCc4ccccc4C3C2)CC1 (centres unmarked) [Compound 101, 2-(Cyclohexane-4,4-d2-carbonyl)-2,3,6,7-tetrahydro-1H-pyrazino[2,1-a]isoquinolin-4(11bH)-one]						52.7	46.7 ± 4.4	56.7	53.9	60.1	52.2 ± 9.7		half-life at 1 μM [1, 8]: 47.4 min; half-life at 1 μM [1, 9]: 43.6 min; half-life at 1 μM [1, 10]: 43.1 min
[2H]C1([2H])CC(C(=O)N2CC(=O)N3CCc4ccccc4C3C2)CC([2H])([2H])C1([2H])[2H] (centres unmarked) [Compound 109, 2-(Cyclohexane-3,3,4,4,5,5,-d6-carbonyl)-2,3,6,7-tetrahydro-1H-pyrazino[2,1-a]isoquinolin-4(11bH)-one]								55.7	53.5	51.2	52.2 ± 4.6	46.4	
O=C(C1CCCCC1)N1CC(=O)N2CCc3ccccc3C2C1 (centres unmarked) [Praziquantel, 2-(cyclohexylcarbonyl)-1,2,3,6,7,11b-hexahydro-4H-pyrazino[2,1-a]isoquinolin-4-one, reference compound]	29.5	31.5	35.1	30.5	31.7 ± 2.5	44.7	38.9 ± 3.9	41.2	43.8	36.9		30.6	portion of a dose excreted in the kidneys [2]: Approximately 80%; portion of the renally excreted dose in the form of metabolites [2]: > 99%

Now from value to molecule, other results behind:

half-life at 1 μM [1, 3] [min]	half-life at 1 μM [1, 4] [min]	half-life at 1 μM [1, 5] [min]	half-life at 1 μM [1, 6] [min]	half-life at 1 μM [1, 7] [min]	half-life at 1 μM [1, 11] [min]	half-life at 1 μM [1, 12] [min]	half-life at 1 μM [1, 13] [min]	half-life at 1 μM [1, 14] [min]	half-life at 1 μM [1, 15] [min]	half-life at 1 μM [1, 16] [min]	half-life at 1 μM [1, 17] [min]	SMILES	also measured
57.4	53.6	50.1	46	51.8 ± 4.9								[2H]C1([2H])C([2H])([2H])C([2H])([2H])C([2H])(C(=O)N2CC(=O)N3CCc4ccccc4[C@@H]3C2)C([2H])([2H])C1([2H])[2H] [102(a), (R)-2-(Cyclohexane-d11-carbonyl)-2,3,6,7-tetrahydro-1H-pyrazino[2,1-a]isoquinolin-4(11bH)-one]	
52.7		50	55.5	50 ± 5.9								[2H]C1([2H])C(C(=O)N2CC(=O)N3CCc4ccccc4[C@@H]3C2)C([2H])([2H])C([2H])([2H])C([2H])([2H])C1([2H])[2H] [103(a), (R)-2-(2,2,3,3,4,4,5,5,6,6-d10-Cyclohexanecarbonyl)-2,3,6,7-tetrahydro-1H-pyrazino[2,1-a]isoquinolin-4(11bH)-one]	
					66.2	55.7 ± 8.7	54.8	50.6	52.4	50.7 ± 4.2	44.9	[2H]C1([2H])C([2H])([2H])C([2H])([2H])C([2H])(C(=O)N2CC(=O)N3CCc4ccccc4C3C2)C([2H])([2H])C1([2H])[2H] (centres unmarked) [Compound 102, 2-(Cyclohexane-d11-carbonyl)-2,3,6,7-tetrahydro-1H-pyrazino[2,1-a]isoquinolin-4(11bH)-one]	half-life at 1 μM [1, 8]: 56.4 min; half-life at 1 μM [1, 9]: 55.4 min; half-life at 1 μM [1, 10]: 44.8 min
							65.1	51.6	69.3	61.7 ± 7.6	60.6	[2H]C1([2H])C(C(=O)N2CC(=O)N3CCc4ccccc4C3C2)C([2H])([2H])C([2H])([2H])C([2H])([2H])C1([2H])[2H] (centres unmarked) [Compound 103, 2-(Cyclohexane-2,2,3,3,4,4,5,5,6,6-d10-carbonyl)-2,3,6,7-tetrahydro-1H-pyrazino[2,1-a]isoquinolin-4(11bH)-one]	
